Measured values as given in patent US11197906B2, “Methods of lowering blink reflex for the treatment of dry eye disease” (Tufts Medical Center, priority 2016, dated 2021).
Non-standard residues stand in square brackets, D forms with d. Residues, ends and D or L forms follow the SMILES beside them. Primed or numbered codes have the meaning given here. *: point of attachment. Palmitoyl = CCCCCCCCCCCCCCCC(=O)*; Tic = O=C(O)[C@@H]1Cc2ccccc2CN1; PEG8′ = not defined here

What was measured:
CMKLR1 [1] = molecular target: T1, CMKLR1 (Homo sapiens, UniProt Q99788); test: β-Arrestin recruitment, Link-Light CMKLR1 stable cell line; format: cell-based; details: 1 hr treatment; for Emax: read-out: Max Efficacy (% 10 μM s-Stable chem9)
T1 construct: expressed in transfected cells; host or cells: HEK293
T1 sequence (Q99788 1-373): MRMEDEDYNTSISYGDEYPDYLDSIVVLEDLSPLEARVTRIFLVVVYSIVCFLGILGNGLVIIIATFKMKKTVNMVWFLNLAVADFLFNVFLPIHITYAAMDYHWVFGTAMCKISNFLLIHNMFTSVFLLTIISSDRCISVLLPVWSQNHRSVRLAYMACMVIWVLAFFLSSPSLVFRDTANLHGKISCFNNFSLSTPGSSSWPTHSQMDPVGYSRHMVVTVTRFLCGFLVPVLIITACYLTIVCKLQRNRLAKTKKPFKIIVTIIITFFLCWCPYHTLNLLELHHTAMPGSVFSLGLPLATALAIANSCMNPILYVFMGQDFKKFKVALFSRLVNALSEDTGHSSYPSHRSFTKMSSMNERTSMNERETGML

CMKLR1 [2] = molecular target: T1, CMKLR1; test: Luciferase reporter assay of CMKLR1 canonical Gαi signal transduction in HEK293 cells transiently expressing recombinant CMKLR1 (+/- wash, +/- albumin); format: cell-based; details: for EC50: no wash
[3] = system: chronic constriction injury (CCI) mouse model; test: Chronic constriction injury (CCI) mouse model of neuropathic pain; format: in vivo; details: for effect on neuropathic pain: CCI mouse model; for time after compound administration over which mechanical hypersensitivity is blocked / efficacy kept: intrathecal administration
Procedure: Following intrathecal administration of compound, 1-Stable Chem (C16-stable Chem9) blocked mechanical hypersensitivity for more than 24 hours after compound administration (FIG. 6A). In contrast, Resolvin E1 lost efficacy by 3 hours post injection (FIG. 6B).
One emerging treatment strategy to treat neuropathic pain is to target modulators of the neuroinflammatory process which contributes to neuropathic pain. We have previously identified a palmitoylated stable analog (“C16-Stable Chem9”) derived from a 9 amino acid fragment of chemerin. […] Extending from these observations, we hypothesized that the pharmacological properties of our peptide may be further optimized by modifying the lipid anchor. We have chemically synthesized a series of Chem 9 analogs with various lipid tails (e.g. cholesterol, oleic acid, linolenic acid). In vitro pharmacological characterization of each peptide was done using HEK293 cells transiently expressing the recombinant CMKLR1. […] Furthermore, selected lipid tails bias binding to either albumin (thus enhancing systemic delivery) or to the cellular membrane (which favors locally restricted function). The lipidated CMKLR1 ligands have promise as modulators of neuropathic pain. In addition, our findings illustrate an approach where serial addition/substitution of lipid anchors can be applied to optimize the pharmacological as well as pharmacokinetic properties of many peptide ligands.

DED mice = test: Dry eye disease (DED) mouse model (scopolamine and desiccating stress); format: in vivo
From the text: FIG. 11 is a graph showing that corneal fluorescein staining scores were lower in DED mice treated with oTTx-010. NEI scoring system: 0-15.
FIG. 13 is a set of flow cytometry graphs showing that percentage of activated immune cells (MHCII+) in the draining lymph node of oTTx-010 treated mice decreased compared to vehicle controls.
FIG. 14 is a set of flow cytometry graphs showing that T regulatory cells increased in the draining lymph node of oTTx-010 treated mice compared to vehicle (showing more tolerance). Flow cytometry of draining lymph nodes gated on CD45+ CD3+ and CD4+ (T cells).
In the DED mouse model, scopolamine is injected 3 times/day to decrease tear production in mice. Fenestrated cages and 4 fans around the cage working 24 hours/day are used to induce desiccating stress and dry eyes. oTTx-010 is administered to the mice to assess treatment efficacy. Vehicle is administered as control.

[4] = system: mouse model of corneal inflammation; test: Thermal cautery mouse model of corneal inflammation; format: in vivo
Procedure: FIG. 15 is a set of flow cytometry graphs showing that cell infiltration decreases after topical application of oTTx-010 compared to vehicle. Flow cytometry of pulled corneas was performed on day 3 post cautery. Mice were treated topically three times a day with 10 μL of oTTx-010 or vehicle for 3 days. 10 μL of […] oTTx-010 in 1×PBS solution=4.2 micrograms oTTx-010/dose.
Thermal cautery is a mouse model of corneal inflammation (see Arch Ophthalmol. 2003 Hamrah et al.).

Compound: CCCC/C=C\CCCCCCCC(=O)NCCOCCOCCOCCOCCOCCOCCOCCOCCC(=O)N[C@@H](CCCCN)C(=O)NCC(=O)NCC(=O)N[C@H](Cc1ccc(O)cc1)C(=O)N[C@@H](Cc1ccccc1)C(=O)N[C@@H](CC(C)C)C(=O)N1CCC[C@H]1C(=O)N[C@H](CO)C(=O)N[C@@H](CCC(N)=O)C(=O)N[C@@H](Cc1ccccc1)C(=O)N[C@H](C)C(=O)N1Cc2ccccc2C[C@H]1C(=O)N[C@@H](CO)C(=O)O [C14:1] (HELM PEPTIDE1{[CCCC/C=C\CCCCCCCC(=O)[*:2]].[O=C(CCOCCOCCOCCOCCOCCOCCOCCOCCN[*:1])[*:2]].K.G.G.[dY].F.L.P.[dS].Q.F.[dA].[Tic].S}$$$$V2.0; N-terminus and C-terminus assumed)
- Emax (CMKLR1 [1]): 124%

Compound: CCCCCCCCCCCCCCCC(=O)NCCOCCOCCOCCOCCOCCOCCOCCOCCC(=O)N[C@@H](CCCCN)C(=O)NCC(=O)NCC(=O)N[C@H](Cc1ccc(O)cc1)C(=O)N[C@@H](Cc1ccccc1)C(=O)N[C@@H](CC(C)C)C(=O)N1CCC[C@H]1C(=O)N[C@H](CO)C(=O)N[C@@H](CCC(N)=O)C(=O)N[C@@H](Cc1ccccc1)C(=O)N[C@H](C)C(=O)N1Cc2ccccc2C[C@H]1C(=O)N[C@@H](CO)C(=O)O [C16] (HELM PEPTIDE1{[CCCCCCCCCCCCCCCC(=O)[*:2]].[O=C(CCOCCOCCOCCOCCOCCOCCOCCOCCN[*:1])[*:2]].K.G.G.[dY].F.L.P.[dS].Q.F.[dA].[Tic].S}$$$$V2.0; N-terminus and C-terminus assumed)
- Emax (CMKLR1 [1]): 165%
- potency and duration of activity (anchors to the cell membrane) (CMKLR1 [2]; previously identified analog): high potency and long-term activity
- wash resistance (an index of membrane adherence) in the presence of BSA (CMKLR1 [2]; with BSA, FIGS. 8A-8B): decreased
- effect on neuropathic pain ([3]; listed as C16-stable Chem9): abrogate neuropathic pain
- effect on neuropathic pain ([3]; listed as palm sC9): alleviated neuropathic pain
- time after compound administration over which mechanical hypersensitivity is blocked / efficacy kept [3]: more than 24 hours

Compound: CC/C=C\C/C=C\C/C=C\CCCCCCCC(=O)NCCOCCOCCOCCOCCOCCOCCOCCOCCC(=O)N[C@@H](CCCCN)C(=O)NCC(=O)NCC(=O)N[C@H](Cc1ccc(O)cc1)C(=O)N[C@@H](Cc1ccccc1)C(=O)N[C@@H](CC(C)C)C(=O)N1CCC[C@H]1C(=O)N[C@H](CO)C(=O)N[C@@H](CCC(N)=O)C(=O)N[C@@H](Cc1ccccc1)C(=O)N[C@H](C)C(=O)N1Cc2ccccc2C[C@H]1C(=O)N[C@@H](CO)C(=O)O [C18:3] (HELM PEPTIDE1{[CC/C=C\C/C=C\C/C=C\CCCCCCCC(=O)[*:2]].[O=C(CCOCCOCCOCCOCCOCCOCCOCCOCCN[*:1])[*:2]].K.G.G.[dY].F.L.P.[dS].Q.F.[dA].[Tic].S}$$$$V2.0; N-terminus and C-terminus assumed)
- Emax (CMKLR1 [1]): 110%
- activity after washing in the presence of BSA (CMKLR1 [2]; with BSA, FIGS. 8C-8D): further reduced

Compound: CCCC(=O)NCCOCCOCCOCCOCCOCCOCCOCCOCCC(=O)N[C@@H](CCCCN)C(=O)NCC(=O)NCC(=O)N[C@H](Cc1ccc(O)cc1)C(=O)N[C@@H](Cc1ccccc1)C(=O)N[C@@H](CC(C)C)C(=O)N1CCC[C@H]1C(=O)N[C@H](CO)C(=O)N[C@@H](CCC(N)=O)C(=O)N[C@@H](Cc1ccccc1)C(=O)N[C@H](C)C(=O)N1Cc2ccccc2C[C@H]1C(=O)N[C@@H](CO)C(=O)O [C4] (HELM PEPTIDE1{[CCCC(=O)[*:2]].[O=C(CCOCCOCCOCCOCCOCCOCCOCCOCCN[*:1])[*:2]].K.G.G.[dY].F.L.P.[dS].Q.F.[dA].[Tic].S}$$$$V2.0; N-terminus and C-terminus assumed)
- Emax (CMKLR1 [1]): 89.7%

Compound: CCCCCC/C=C\CCCCCCCC(=O)NCCOCCOCCOCCOCCOCCOCCOCCOCCC(=O)N[C@@H](CCCCN)C(=O)NCC(=O)NCC(=O)N[C@H](Cc1ccc(O)cc1)C(=O)N[C@@H](Cc1ccccc1)C(=O)N[C@@H](CC(C)C)C(=O)N1CCC[C@H]1C(=O)N[C@H](CO)C(=O)N[C@@H](CCC(N)=O)C(=O)N[C@@H](Cc1ccccc1)C(=O)N[C@H](C)C(=O)N1Cc2ccccc2C[C@H]1C(=O)N[C@@H](CO)C(=O)O [C16:1] (HELM PEPTIDE1{[CCCCCC/C=C\CCCCCCCC(=O)[*:2]].[O=C(CCOCCOCCOCCOCCOCCOCCOCCOCCN[*:1])[*:2]].K.G.G.[dY].F.L.P.[dS].Q.F.[dA].[Tic].S}$$$$V2.0; N-terminus and C-terminus assumed)
- Emax (CMKLR1 [1]): 154%

Compound: CC[C@@H](O)/C=C/C=C\C[C@@H](O)/C=C/C=C/C=C\[C@@H](O)CCCC(=O)O [Resolvin E1, reference compound]
- effect on neuropathic pain [3]: abrogate neuropathic pain
- time after compound administration over which mechanical hypersensitivity is blocked / efficacy kept [3]: ≤ 3 h

Compound: palmitate-PEG8KGG-H2N-Y*-F-L-P-S*-Q-F-A*-Tic-S-COOH ({Palmitoyl-PEG8′}-KGG[dY]FLP[dS]QF[dA][Tic]S-OH) [oTTx-010]
- corneal fluorescein staining scores (DED mice; NEI scoring system: 0-15, compared with vehicle): lower
- blink reflex as a sign of ocular irritation (DED mice; compared to vehicle treated group): significantly lower
- T regulatory cells in the draining lymph node (DED mice; flow cytometry gated on CD45+ CD3+ and CD4+, compared to vehicle): increased
- percentage of activated immune cells (MHCII+) in the draining lymph node (DED mice; flow cytometry, compared to vehicle controls): decreased
- clinical symptoms and signs and immune tolerance in DED (DED mice; topical): decrease clinical symptoms and signs and improve immune tolerance
- cell infiltration (flow cytometry of corneas) ([4]; day 3 post cautery, topical three times a day 10 μL for 3 days, compared to vehicle): decreases
- inflammation in the eye ([4]; topical): decrease inflammation in the eye

Compound: CCCCCCCCCC(=O)NCCOCCOCCOCCOCCOCCOCCOCCOCCC(=O)N[C@@H](CCCCN)C(=O)NCC(=O)NCC(=O)N[C@H](Cc1ccc(O)cc1)C(=O)N[C@@H](Cc1ccccc1)C(=O)N[C@@H](CC(C)C)C(=O)N1CCC[C@H]1C(=O)N[C@H](CO)C(=O)N[C@@H](CCC(N)=O)C(=O)N[C@@H](Cc1ccccc1)C(=O)N[C@H](C)C(=O)N1Cc2ccccc2C[C@H]1C(=O)N[C@@H](CO)C(=O)O [C10] (HELM PEPTIDE1{[CCCCCCCCCC(=O)[*:2]].[O=C(CCOCCOCCOCCOCCOCCOCCOCCOCCN[*:1])[*:2]].K.G.G.[dY].F.L.P.[dS].Q.F.[dA].[Tic].S}$$$$V2.0; N-terminus and C-terminus assumed)
- Emax (CMKLR1 [1]): 98.3%

Compound: CCCCCCCC/C=C\CCCCCCCC(=O)NCCOCCOCCOCCOCCOCCOCCOCCOCCC(=O)N[C@@H](CCCCN)C(=O)NCC(=O)NCC(=O)N[C@H](Cc1ccc(O)cc1)C(=O)N[C@@H](Cc1ccccc1)C(=O)N[C@@H](CC(C)C)C(=O)N1CCC[C@H]1C(=O)N[C@H](CO)C(=O)N[C@@H](CCC(N)=O)C(=O)N[C@@H](Cc1ccccc1)C(=O)N[C@H](C)C(=O)N1Cc2ccccc2C[C@H]1C(=O)N[C@@H](CO)C(=O)O [C18:1] (HELM PEPTIDE1{[CCCCCCCC/C=C\CCCCCCCC(=O)[*:2]].[O=C(CCOCCOCCOCCOCCOCCOCCOCCOCCN[*:1])[*:2]].K.G.G.[dY].F.L.P.[dS].Q.F.[dA].[Tic].S}$$$$V2.0; N-terminus and C-terminus assumed)
- Emax (CMKLR1 [1]): 160%

Compound: CC(C)C[C@H](NC(=O)[C@H](Cc1ccccc1)NC(=O)[C@H](N)Cc1ccc(O)cc1)C(=O)N1CCC[C@H]1C(=O)N[C@H](CO)C(=O)N[C@@H](CCC(N)=O)C(=O)N[C@@H](Cc1ccccc1)C(=O)N[C@H](C)C(=O)N1Cc2ccccc2C[C@H]1C(=O)N[C@@H](CO)C(=O)O [none, reference compound] (HELM PEPTIDE1{[dY].F.L.P.[dS].Q.F.[dA].[Tic].S}$$$$V2.0)
- EC50 (CMKLR1 [1]): 31.9 nM
- Emax (CMKLR1 [1]): 100%
- EC50 (CMKLR1 [2]; no BSA, read-out: EC50 (no wash0)): 35.2 nM
- EC50 (CMKLR1 [2]; with BSA, read-out: EC50 (BSA) (no wash)): 5.1 nM
